From PMC6443876, “Molecular structure of a 5,10‐methylenetetrahydrofolate dehydrogenase from the silkworm Bombyx mori” (FEBS Open Bio, 2019)

Experiments:
bmMTHFD [1] = molecular target: T1, bmMTHFD (Bombyx mori, UniProt H9IYM1, Q97A); experiment: decrease in absorption at […] nm, Michaelis-Menten fit; type: biochemical; settings: cyclohydrolase activity; 0.1 M potassium maleate pH 7.4, 0.02 M 2-mercaptoethanol, 30 °C
T1 construct: gene method; full-length ORF (906 bp, 301 residues, 32 733 Da), pET-15b (NdeI/BamHI); homodimer ~63 kDa; cDNA from larval fat body
T1 sequence (H9IYM1 entry or part of it Q97A): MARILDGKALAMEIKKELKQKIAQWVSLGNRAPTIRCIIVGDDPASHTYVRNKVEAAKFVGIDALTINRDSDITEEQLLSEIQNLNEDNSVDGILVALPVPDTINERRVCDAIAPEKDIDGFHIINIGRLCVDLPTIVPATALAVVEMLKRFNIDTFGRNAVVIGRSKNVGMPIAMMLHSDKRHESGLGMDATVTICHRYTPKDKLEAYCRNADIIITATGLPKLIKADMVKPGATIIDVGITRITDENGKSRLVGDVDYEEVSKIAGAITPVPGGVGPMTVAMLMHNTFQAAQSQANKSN

bmMTHFD [2] = molecular target: T2, bmMTHFD (Bombyx mori, UniProt H9IYM1, D120A); experiment: as above; type: biochemical; settings: cyclohydrolase activity; 0.1 M potassium maleate pH 7.4, 0.02 M 2-mercaptoethanol, 30 °C
T2 construct: gene method; full-length ORF (906 bp, 301 residues, 32 733 Da), pET-15b (NdeI/BamHI); homodimer ~63 kDa; cDNA from larval fat body
T2 sequence (H9IYM1 entry or part of it D120A): as the sequence (H9IYM1 entry or part of it Q97A) above, with A97Q, D120A counted along it

bmMTHFD [3] = molecular target: T3, bmMTHFD (Bombyx mori, UniProt H9IYM1, K53A); experiment: as above; type: biochemical; settings: cyclohydrolase activity; 0.1 M potassium maleate pH 7.4, 0.02 M 2-mercaptoethanol, 30 °C
T3 construct: gene method; full-length ORF (906 bp, 301 residues, 32 733 Da), pET-15b (NdeI/BamHI); homodimer ~63 kDa; cDNA from larval fat body
T3 sequence (H9IYM1 entry or part of it K53A): as the sequence (H9IYM1 entry or part of it Q97A) above, with K53A, A97Q counted along it

bmMTHFD [4] = molecular target: T4, bmMTHFD (Bombyx mori, UniProt H9IYM1); experiment: as above; type: biochemical; settings: cyclohydrolase activity; 0.1 M potassium maleate pH 7.4, 0.02 M 2-mercaptoethanol, 30 °C
T4 construct: gene method; full-length ORF (906 bp, 301 residues, 32 733 Da), pET-15b (NdeI/BamHI); homodimer ~63 kDa; cDNA from larval fat body
T4 sequence (H9IYM1 1-301): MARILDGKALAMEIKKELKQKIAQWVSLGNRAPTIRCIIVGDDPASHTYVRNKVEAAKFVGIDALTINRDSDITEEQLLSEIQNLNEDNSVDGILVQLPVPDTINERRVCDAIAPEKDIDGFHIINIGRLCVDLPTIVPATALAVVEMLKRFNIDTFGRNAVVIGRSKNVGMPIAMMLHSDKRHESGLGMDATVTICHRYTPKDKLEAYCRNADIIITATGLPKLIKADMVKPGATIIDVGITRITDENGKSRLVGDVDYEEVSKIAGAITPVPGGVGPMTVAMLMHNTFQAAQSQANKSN

bmMTHFD [5] = molecular target: T5, bmMTHFD (Bombyx mori, UniProt H9IYM1, S46A); experiment: endpoint absorbance at […] nm, Michaelis-Menten fit; type: biochemical; settings: dehydrogenase activity, 20 mM sodium phosphate pH 6.5, 30 mM 2-mercaptoethanol, 28 °C
T5 construct: gene method; full-length ORF (906 bp, 301 residues, 32 733 Da), pET-15b (NdeI/BamHI); homodimer ~63 kDa; cDNA from larval fat body
T5 sequence (H9IYM1 entry or part of it S46A): as the sequence (H9IYM1 entry or part of it Q97A) above, with S46A, A97Q counted along it

bmMTHFD [6] = molecular target: T3, bmMTHFD; experiment: endpoint absorbance at […] nm, Michaelis-Menten fit; type: biochemical; settings: dehydrogenase activity, 20 mM sodium phosphate pH 6.5, 30 mM 2-mercaptoethanol, 28 °C
bmMTHFD [7] = molecular target: T4, bmMTHFD; experiment: endpoint absorbance at […] nm, Michaelis-Menten fit; type: biochemical; settings: dehydrogenase activity, 20 mM sodium phosphate pH 6.5, 30 mM 2-mercaptoethanol, 28 °C
bmMTHFD [8] = molecular target: T1, bmMTHFD; experiment: endpoint absorbance at […] nm, Michaelis-Menten fit; type: biochemical; settings: dehydrogenase activity; NADP+ as cofactor; 20 mM sodium phosphate pH 6.5, 30 mM 2-mercaptoethanol, 28 °C
bmMTHFD [9] = molecular target: T2, bmMTHFD; experiment: endpoint absorbance at […] nm, Michaelis-Menten fit; type: biochemical; settings: dehydrogenase activity; MTHF as co-substrate; 20 mM sodium phosphate pH 6.5, 30 mM 2-mercaptoethanol, 28 °C
[10] = molecular target: Bombyx mori 5,10-methylenetetrahydrofolate dehydrogenase (Bombyx mori); experiment: SEC; Superdex 200 analytical gel filtration, calibrated with protein standards (thyroglobulin, globulin, ovalbumin, myoglobin); bmMTHFD eluted at 205 mL, corresponding to 63 kDa

`Nc1nc2c(c(=O)[nH]1)[N+]1=CN(c3ccc(C(=O)N[C@@H](CCC(=O)O)C(=O)O)cc3)C[C@H]1CN2` [5,10-methenyl-THF] was tested, and the Q97A (bmMTHFD [1]) was 0.019 (± 2.5 × 10^−3) mM, the D120A (bmMTHFD [2]) was 0.23 (± 2.5 × 10^−2) mM and the K53A (bmMTHFD [3]) was 0.16 (± 1.5 × 10^−2) mM. The WT (bmMTHFD [4]) was 0.13 (± 6.0 × 10^−3) mM.
With `Nc1nc2c(c(=O)[nH]1)N1CN(c3ccc(C(=O)N[C@@H](CCC(=O)O)C(=O)O)cc3)C[C@H]1CN2` [MTHF] the S46A (bmMTHFD [5]; NADP+ as cofactor) was 0.19 (± 4.8 × 10^−3) mM, the K53A (bmMTHFD [6]; NADP+ as cofactor) was 1.1 (± 1.8 × 10^−2) mM and the WT (bmMTHFD [7]; NADP+ as cofactor) was 0.51 (± 3.3 × 10^−2) mM. For the same compound, the Q97A (bmMTHFD [8]) was 0.81 (± 2.8 × 10^−2) mM.
In the case of `NC(=O)c1ccc[n+]([C@@H]2O[C@H](COP(=O)(O)OP(=O)(O)OC[C@H]3O[C@@H](n4cnc5c(N)ncnc54)[C@H](OP(=O)(O)O)[C@@H]3O)[C@@H](O)[C@H]2O)c1` [NADP^+], the S46A (bmMTHFD [5]; MTHF as co-substrate) is reported as 0.98 (± 1.3 × 10^−1) mM, the K53A (bmMTHFD [6]; MTHF as co-substrate) is reported as 0.62 (± 6.5 × 10^−2) mM and the D120A (bmMTHFD [9]) is reported as 2.0 (± 1.4 × 10^−1) mM. For the same compound, the WT (bmMTHFD [7]; MTHF as co-substrate) was 0.22 (± 1.0 × 10^−2) mM.
With `NC(=O)c1ccc[n+]([C@@H]2O[C@H](COP(=O)(O)OP(=O)(O)OC[C@H]3O[C@@H](n4cnc5c(N)ncnc54)[C@H](O)[C@@H]3O)[C@@H](O)[C@H]2O)c1` [NAD^+] the D120A (bmMTHFD [9]) was 2.0 (± 9.0 × 10^−2) mM and the WT (bmMTHFD [7]; MTHF as co-substrate) was 0.27 (± 2.0 × 10^−2) mM.
With “Bombyx mori 5,10-methylenetetrahydrofolate dehydrogenase (enzyme)” the stoichiometry N [10] was 2.
